The source made the active and inactive calls. The rule behind the calls is not given here.

Data on 3 compounds can be found in PubChem BioAssay AID1259407 (Chemical Carcinogenesis Research Information System (CCRIS), 2018).

This series has as its system CCRIS mutagenicity, Ames/micronucleus/aberration tests. Kind of series: CCRIS mutagenicity studies.

For `O=[N+]([O-])CCO`, the mutagenic call is, setting by setting: (Test System: AMES SALMONELLA TYPHIMURIUM, Strain/Indicator: TA97, Metabolic Activation: HAMSTER, LIVER, S-9, AROCLOR 1254 (5 OR 30%), Method: PREINCUBATION) “inactive; negative”; (Test System: AMES SALMONELLA TYPHIMURIUM, Strain/Indicator: TA97, Metabolic Activation: HAMSTER, LIVER, S-9, AROCLOR 1254 (10%), Method: PREINCUBATION) “inactive; negative”; (Test System: AMES SALMONELLA TYPHIMURIUM, Strain/Indicator: TA97, Metabolic Activation: NONE, Method: PREINCUBATION) “inactive; negative”; (Test System: AMES SALMONELLA TYPHIMURIUM, Strain/Indicator: TA97, Metabolic Activation: RAT, LIVER, S-9, AROCLOR 1254 (5 OR 30%), Method: PREINCUBATION) “inactive; negative”; (Test System: AMES SALMONELLA TYPHIMURIUM, Strain/Indicator: TA97, Metabolic Activation: RAT, LIVER, S-9, AROCLOR 1254 (10%), Method: PREINCUBATION) “inactive; negative”; (Test System: AMES SALMONELLA TYPHIMURIUM, Strain/Indicator: TA98, Metabolic Activation: HAMSTER, LIVER, S-9, AROCLOR 1254 (10%), Method: PREINCUBATION) “inactive; negative”. The mutagenic call by setting is: (Test System: AMES SALMONELLA TYPHIMURIUM, Strain/Indicator: TA98, Metabolic Activation: RAT, LIVER, S-9, AROCLOR 1254 (10%), Method: PREINCUBATION) “inactive; negative”; (Test System: AMES SALMONELLA TYPHIMURIUM, Strain/Indicator: TA100, Metabolic Activation: HAMSTER, LIVER, S-9, AROCLOR 1254 (10%), Method: PREINCUBATION) “inactive; negative”; (Test System: AMES SALMONELLA TYPHIMURIUM, Strain/Indicator: TA100, Metabolic Activation: HAMSTER, LIVER, S-9, AROCLOR 1254 (30%), Method: PREINCUBATION) “inactive; negative”; (Test System: AMES SALMONELLA TYPHIMURIUM, Strain/Indicator: TA100, Metabolic Activation: NONE, Method: PREINCUBATION) “inactive; negative”; (Test System: AMES SALMONELLA TYPHIMURIUM, Strain/Indicator: TA100, Metabolic Activation: RAT, LIVER, S-9, AROCLOR 1254 (10%), Method: PREINCUBATION) “inactive; negative”; (Test System: AMES SALMONELLA TYPHIMURIUM, Strain/Indicator: TA100, Metabolic Activation: RAT, LIVER, S-9, AROCLOR 1254 (30%), Method: PREINCUBATION) “inactive; negative”. Also, the mutagenic call runs as follows: (Test System: AMES SALMONELLA TYPHIMURIUM, Strain/Indicator: TA1535, Metabolic Activation: HAMSTER, LIVER, S-9, AROCLOR 1254 (10%), Method: PREINCUBATION) “inactive; negative”; (Test System: AMES SALMONELLA TYPHIMURIUM, Strain/Indicator: TA1535, Metabolic Activation: HAMSTER, LIVER, S-9, AROCLOR 1254 (30%), Method: PREINCUBATION) “inactive; negative”; (Test System: AMES SALMONELLA TYPHIMURIUM, Strain/Indicator: TA1535, Metabolic Activation: NONE, Method: PREINCUBATION) “inactive; negative”; (Test System: AMES SALMONELLA TYPHIMURIUM, Strain/Indicator: TA1535, Metabolic Activation: RAT, LIVER, S-9, AROCLOR 1254 (10%), Method: PREINCUBATION) “inactive; negative”; (Test System: AMES SALMONELLA TYPHIMURIUM, Strain/Indicator: TA1535, Metabolic Activation: RAT, LIVER, S-9, AROCLOR 1254 (30%), Method: PREINCUBATION) “inactive; negative”; (Test System: AMES SALMONELLA TYPHIMURIUM, Strain/Indicator: TA1537, Metabolic Activation: HAMSTER, LIVER, S-9, AROCLOR 1254 (10%), Method: PREINCUBATION) “inactive; negative”. Further, the mutagenic call reads like this: (Test System: AMES SALMONELLA TYPHIMURIUM, Strain/Indicator: TA1537, Metabolic Activation: NONE, Method: PREINCUBATION) “inactive; negative”; (Test System: AMES SALMONELLA TYPHIMURIUM, Strain/Indicator: TA1537, Metabolic Activation: RAT, LIVER, S-9, AROCLOR 1254 (10%), Method: PREINCUBATION) “inactive; negative”; (Test System: AMES SALMONELLA TYPHIMURIUM, Strain/Indicator: TA1538, Metabolic Activation: HAMSTER, LIVER, S-9, AROCLOR 1254 (30%), Method: PREINCUBATION) “active; positive”; (Test System: AMES SALMONELLA TYPHIMURIUM, Strain/Indicator: TA1538, Metabolic Activation: NONE, Method: PREINCUBATION) “active; positive”; (Test System: AMES SALMONELLA TYPHIMURIUM, Strain/Indicator: TA1538, Metabolic Activation: RAT, LIVER, S-9, AROCLOR 1254 (30%), Method: PREINCUBATION) “active; positive”.

Take `COCCc1ccc(OCC(O)CN(N=O)C(C)C)cc1` (stereo unspecified): the mutagenic call is, setting by setting: (Test System: UDS HUMAN HEPATOCYTES, Strain/Indicator: THY INCORP, Metabolic Activation: NONE, Method: AUTORADIOGRAPHY) “active; positive”; (Test System: UDS RAT HEPATOCYTES, Strain/Indicator: THY INCORP, Metabolic Activation: NONE, Method: AUTORADIOGRAPHY) “active; positive”.

`COc1nsc2ccc(OCC3CO3)cc12` (stereo unspecified): the mutagenic call (Test System: AMES SALMONELLA TYPHIMURIUM, Strain/Indicator: TA100, Metabolic Activation: NONE, Method: STANDARD PLATE) was “active; positive”.
